# Measured values as given in ChEMBL document CHEMBL5291721, “A preclinical secondary pharmacology resource illuminates target-adverse drug reaction associations of marketed drugs” (Nat Commun, 2023).
# Experiments:
# [1] = molecular target: T1, Alpha-2A adrenergic receptor (Homo sapiens, UniProt P08913); type: functional, cell-based
# T1 sequence (P08913 whole entry): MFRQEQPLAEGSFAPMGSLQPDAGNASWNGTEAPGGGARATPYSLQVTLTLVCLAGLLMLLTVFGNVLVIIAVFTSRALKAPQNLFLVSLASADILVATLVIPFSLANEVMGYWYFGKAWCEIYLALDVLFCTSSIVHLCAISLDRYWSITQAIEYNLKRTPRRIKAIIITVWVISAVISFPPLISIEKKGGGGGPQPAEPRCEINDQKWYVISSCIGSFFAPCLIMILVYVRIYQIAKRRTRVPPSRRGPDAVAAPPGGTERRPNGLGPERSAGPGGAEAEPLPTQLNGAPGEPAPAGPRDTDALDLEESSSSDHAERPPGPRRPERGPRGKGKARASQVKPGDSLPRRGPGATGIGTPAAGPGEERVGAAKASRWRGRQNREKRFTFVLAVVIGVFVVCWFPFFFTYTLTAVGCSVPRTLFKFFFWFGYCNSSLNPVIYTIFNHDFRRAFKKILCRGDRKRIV
# [2] = molecular target: T2, Muscarinic acetylcholine receptor M1 (Homo sapiens, UniProt P11229); type: functional
# T2 sequence (P11229 whole entry): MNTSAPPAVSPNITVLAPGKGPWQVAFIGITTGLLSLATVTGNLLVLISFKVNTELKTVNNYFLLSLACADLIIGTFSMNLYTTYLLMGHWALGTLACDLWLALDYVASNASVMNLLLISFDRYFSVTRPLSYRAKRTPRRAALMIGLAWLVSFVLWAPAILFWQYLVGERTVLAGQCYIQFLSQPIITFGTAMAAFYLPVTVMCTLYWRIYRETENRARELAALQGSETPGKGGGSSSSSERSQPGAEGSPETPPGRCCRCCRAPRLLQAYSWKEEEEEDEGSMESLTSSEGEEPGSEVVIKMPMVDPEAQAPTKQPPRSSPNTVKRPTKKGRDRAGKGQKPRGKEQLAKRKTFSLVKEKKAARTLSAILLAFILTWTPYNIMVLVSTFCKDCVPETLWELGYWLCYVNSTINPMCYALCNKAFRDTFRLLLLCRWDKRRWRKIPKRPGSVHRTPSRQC
# [3] = molecular target: Muscarinic acetylcholine receptor M3 (Homo sapiens, UniProt P20309)
# Sequence of Muscarinic acetylcholine receptor M3 (P20309 whole entry): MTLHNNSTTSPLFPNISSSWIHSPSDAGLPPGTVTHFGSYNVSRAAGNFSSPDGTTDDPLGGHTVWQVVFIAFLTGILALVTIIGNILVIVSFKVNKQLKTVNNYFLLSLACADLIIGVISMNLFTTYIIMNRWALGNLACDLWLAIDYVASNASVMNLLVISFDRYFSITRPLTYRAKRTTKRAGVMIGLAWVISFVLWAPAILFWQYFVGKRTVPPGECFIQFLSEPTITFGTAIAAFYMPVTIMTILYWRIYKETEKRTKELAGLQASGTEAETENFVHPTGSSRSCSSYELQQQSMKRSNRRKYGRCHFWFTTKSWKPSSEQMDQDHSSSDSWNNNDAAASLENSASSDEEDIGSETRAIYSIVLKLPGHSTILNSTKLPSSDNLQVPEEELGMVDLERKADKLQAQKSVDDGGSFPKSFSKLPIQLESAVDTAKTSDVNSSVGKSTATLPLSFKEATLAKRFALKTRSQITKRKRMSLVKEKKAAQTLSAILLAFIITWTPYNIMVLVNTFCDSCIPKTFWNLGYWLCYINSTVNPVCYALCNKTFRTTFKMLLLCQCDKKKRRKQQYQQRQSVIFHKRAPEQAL
# D(1A) dopamine receptor = D(1A) dopamine receptor (Homo sapiens, UniProt P21728); type: functional, cell-based
# Sequence of D(1A) dopamine receptor (P21728 whole entry): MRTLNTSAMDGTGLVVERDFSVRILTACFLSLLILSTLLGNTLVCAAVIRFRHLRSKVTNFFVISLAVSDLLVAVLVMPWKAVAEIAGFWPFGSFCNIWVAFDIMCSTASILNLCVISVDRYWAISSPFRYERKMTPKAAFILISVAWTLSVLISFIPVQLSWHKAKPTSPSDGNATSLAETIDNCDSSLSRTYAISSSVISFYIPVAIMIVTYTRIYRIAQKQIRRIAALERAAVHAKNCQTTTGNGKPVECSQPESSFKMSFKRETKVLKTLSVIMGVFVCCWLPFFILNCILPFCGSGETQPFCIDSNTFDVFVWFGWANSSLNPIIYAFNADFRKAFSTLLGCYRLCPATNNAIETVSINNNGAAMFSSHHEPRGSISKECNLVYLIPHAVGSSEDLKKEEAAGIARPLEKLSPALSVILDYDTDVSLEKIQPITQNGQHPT
# Endothelin-1 receptor = molecular target: T3, Endothelin-1 receptor (Homo sapiens, UniProt P25101)
# T3 sequence (P25101 whole entry): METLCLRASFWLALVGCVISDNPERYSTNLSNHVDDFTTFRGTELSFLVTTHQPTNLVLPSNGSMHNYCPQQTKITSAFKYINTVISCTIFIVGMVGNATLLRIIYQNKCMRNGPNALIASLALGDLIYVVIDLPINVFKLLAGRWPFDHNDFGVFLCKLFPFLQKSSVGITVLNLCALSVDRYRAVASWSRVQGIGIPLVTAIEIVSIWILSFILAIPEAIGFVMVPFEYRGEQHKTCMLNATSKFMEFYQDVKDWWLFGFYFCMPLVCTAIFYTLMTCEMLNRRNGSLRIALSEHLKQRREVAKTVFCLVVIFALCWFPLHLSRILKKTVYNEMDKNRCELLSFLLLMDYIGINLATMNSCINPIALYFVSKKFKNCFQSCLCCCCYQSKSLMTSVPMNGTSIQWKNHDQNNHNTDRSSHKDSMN
# Histamine H1 receptor = Histamine H1 receptor (Homo sapiens, UniProt P35367)
# Sequence of Histamine H1 receptor (P35367 whole entry): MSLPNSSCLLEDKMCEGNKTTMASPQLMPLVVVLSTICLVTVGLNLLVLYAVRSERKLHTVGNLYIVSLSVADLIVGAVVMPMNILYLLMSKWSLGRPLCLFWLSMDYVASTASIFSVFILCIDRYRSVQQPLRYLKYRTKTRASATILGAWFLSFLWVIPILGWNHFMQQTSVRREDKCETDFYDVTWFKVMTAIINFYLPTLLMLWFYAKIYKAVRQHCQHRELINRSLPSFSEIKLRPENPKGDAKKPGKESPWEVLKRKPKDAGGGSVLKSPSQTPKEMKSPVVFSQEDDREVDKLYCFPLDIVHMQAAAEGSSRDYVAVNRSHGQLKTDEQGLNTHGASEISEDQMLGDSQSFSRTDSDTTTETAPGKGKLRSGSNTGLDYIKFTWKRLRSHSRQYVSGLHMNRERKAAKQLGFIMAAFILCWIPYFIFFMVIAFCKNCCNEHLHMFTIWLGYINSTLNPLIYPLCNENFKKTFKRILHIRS
# [4] = molecular target: T4, Equilibrative nucleoside transporter 1 (Homo sapiens, UniProt Q99808)
# T4 sequence (Q99808 whole entry): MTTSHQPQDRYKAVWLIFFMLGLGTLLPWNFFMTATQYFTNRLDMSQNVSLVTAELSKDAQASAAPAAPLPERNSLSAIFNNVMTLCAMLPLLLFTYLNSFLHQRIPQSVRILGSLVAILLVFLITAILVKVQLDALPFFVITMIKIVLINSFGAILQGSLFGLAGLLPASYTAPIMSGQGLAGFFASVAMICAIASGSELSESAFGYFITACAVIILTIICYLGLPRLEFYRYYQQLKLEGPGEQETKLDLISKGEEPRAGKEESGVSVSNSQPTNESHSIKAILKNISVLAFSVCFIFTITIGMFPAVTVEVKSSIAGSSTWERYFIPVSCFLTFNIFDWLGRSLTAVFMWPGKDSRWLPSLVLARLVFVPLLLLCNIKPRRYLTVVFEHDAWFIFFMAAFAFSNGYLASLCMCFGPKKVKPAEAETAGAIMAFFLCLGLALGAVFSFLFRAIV
# [5] = molecular target: Sodium-dependent dopamine transporter (Homo sapiens, UniProt Q01959)
# Sequence of Sodium-dependent dopamine transporter (Q01959 whole entry): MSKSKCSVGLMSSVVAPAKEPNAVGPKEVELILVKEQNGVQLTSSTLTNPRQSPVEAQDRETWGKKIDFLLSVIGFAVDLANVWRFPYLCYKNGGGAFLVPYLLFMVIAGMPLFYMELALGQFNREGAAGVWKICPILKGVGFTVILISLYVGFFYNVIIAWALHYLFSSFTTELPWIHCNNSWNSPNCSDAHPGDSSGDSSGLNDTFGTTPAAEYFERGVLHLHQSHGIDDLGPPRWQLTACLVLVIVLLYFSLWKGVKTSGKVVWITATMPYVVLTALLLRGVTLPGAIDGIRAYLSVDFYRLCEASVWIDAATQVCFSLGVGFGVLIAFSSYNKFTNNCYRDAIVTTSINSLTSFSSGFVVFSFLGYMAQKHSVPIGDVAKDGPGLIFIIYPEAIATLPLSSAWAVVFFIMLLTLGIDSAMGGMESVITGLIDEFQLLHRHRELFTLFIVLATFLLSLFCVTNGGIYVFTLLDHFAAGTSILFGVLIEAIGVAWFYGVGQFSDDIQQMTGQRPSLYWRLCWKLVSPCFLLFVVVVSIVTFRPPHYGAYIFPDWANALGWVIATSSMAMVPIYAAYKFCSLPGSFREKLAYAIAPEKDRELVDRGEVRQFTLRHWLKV
# [6] = molecular target: Sodium-dependent noradrenaline transporter (Homo sapiens, UniProt P23975)
# Sequence of Sodium-dependent noradrenaline transporter (P23975 whole entry): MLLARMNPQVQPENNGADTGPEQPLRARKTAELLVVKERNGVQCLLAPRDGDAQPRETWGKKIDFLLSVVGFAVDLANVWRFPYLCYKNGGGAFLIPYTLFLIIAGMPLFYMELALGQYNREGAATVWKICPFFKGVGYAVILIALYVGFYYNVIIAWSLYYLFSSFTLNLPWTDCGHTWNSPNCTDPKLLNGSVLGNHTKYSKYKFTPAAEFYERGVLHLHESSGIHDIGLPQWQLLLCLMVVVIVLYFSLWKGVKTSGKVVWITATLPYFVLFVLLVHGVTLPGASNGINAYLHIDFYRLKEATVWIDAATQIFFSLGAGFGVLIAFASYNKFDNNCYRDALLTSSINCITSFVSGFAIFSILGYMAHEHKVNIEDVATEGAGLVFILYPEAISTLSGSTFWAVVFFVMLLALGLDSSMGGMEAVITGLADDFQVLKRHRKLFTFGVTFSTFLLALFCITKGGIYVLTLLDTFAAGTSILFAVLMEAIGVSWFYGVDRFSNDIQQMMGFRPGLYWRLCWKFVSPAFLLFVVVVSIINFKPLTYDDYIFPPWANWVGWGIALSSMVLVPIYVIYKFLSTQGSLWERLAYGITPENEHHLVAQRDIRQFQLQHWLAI
# [7] = molecular target: T5, Amine oxidase [flavin-containing] A (Homo sapiens, UniProt P21397); type: functional
# T5 sequence (P21397 whole entry): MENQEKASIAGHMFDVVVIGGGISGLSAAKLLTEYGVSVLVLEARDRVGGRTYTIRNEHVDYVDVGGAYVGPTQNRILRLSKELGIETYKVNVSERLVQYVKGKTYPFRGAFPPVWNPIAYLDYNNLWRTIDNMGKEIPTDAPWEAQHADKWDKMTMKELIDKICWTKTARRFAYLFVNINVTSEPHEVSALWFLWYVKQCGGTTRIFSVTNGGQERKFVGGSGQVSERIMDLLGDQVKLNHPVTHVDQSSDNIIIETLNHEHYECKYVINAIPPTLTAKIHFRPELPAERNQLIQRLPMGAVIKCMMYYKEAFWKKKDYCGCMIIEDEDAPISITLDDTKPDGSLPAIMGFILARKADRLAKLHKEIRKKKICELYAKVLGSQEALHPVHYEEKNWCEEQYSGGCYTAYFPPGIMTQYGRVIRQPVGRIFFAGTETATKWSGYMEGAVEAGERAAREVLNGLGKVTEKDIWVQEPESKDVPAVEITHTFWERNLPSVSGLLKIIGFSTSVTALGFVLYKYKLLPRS
# [8] = molecular target: Voltage-dependent L-type calcium channel subunit alpha-1C (Rattus norvegicus, UniProt P22002); type: functional
# Sequence of Voltage-dependent L-type calcium channel subunit alpha-1C (P22002 whole entry): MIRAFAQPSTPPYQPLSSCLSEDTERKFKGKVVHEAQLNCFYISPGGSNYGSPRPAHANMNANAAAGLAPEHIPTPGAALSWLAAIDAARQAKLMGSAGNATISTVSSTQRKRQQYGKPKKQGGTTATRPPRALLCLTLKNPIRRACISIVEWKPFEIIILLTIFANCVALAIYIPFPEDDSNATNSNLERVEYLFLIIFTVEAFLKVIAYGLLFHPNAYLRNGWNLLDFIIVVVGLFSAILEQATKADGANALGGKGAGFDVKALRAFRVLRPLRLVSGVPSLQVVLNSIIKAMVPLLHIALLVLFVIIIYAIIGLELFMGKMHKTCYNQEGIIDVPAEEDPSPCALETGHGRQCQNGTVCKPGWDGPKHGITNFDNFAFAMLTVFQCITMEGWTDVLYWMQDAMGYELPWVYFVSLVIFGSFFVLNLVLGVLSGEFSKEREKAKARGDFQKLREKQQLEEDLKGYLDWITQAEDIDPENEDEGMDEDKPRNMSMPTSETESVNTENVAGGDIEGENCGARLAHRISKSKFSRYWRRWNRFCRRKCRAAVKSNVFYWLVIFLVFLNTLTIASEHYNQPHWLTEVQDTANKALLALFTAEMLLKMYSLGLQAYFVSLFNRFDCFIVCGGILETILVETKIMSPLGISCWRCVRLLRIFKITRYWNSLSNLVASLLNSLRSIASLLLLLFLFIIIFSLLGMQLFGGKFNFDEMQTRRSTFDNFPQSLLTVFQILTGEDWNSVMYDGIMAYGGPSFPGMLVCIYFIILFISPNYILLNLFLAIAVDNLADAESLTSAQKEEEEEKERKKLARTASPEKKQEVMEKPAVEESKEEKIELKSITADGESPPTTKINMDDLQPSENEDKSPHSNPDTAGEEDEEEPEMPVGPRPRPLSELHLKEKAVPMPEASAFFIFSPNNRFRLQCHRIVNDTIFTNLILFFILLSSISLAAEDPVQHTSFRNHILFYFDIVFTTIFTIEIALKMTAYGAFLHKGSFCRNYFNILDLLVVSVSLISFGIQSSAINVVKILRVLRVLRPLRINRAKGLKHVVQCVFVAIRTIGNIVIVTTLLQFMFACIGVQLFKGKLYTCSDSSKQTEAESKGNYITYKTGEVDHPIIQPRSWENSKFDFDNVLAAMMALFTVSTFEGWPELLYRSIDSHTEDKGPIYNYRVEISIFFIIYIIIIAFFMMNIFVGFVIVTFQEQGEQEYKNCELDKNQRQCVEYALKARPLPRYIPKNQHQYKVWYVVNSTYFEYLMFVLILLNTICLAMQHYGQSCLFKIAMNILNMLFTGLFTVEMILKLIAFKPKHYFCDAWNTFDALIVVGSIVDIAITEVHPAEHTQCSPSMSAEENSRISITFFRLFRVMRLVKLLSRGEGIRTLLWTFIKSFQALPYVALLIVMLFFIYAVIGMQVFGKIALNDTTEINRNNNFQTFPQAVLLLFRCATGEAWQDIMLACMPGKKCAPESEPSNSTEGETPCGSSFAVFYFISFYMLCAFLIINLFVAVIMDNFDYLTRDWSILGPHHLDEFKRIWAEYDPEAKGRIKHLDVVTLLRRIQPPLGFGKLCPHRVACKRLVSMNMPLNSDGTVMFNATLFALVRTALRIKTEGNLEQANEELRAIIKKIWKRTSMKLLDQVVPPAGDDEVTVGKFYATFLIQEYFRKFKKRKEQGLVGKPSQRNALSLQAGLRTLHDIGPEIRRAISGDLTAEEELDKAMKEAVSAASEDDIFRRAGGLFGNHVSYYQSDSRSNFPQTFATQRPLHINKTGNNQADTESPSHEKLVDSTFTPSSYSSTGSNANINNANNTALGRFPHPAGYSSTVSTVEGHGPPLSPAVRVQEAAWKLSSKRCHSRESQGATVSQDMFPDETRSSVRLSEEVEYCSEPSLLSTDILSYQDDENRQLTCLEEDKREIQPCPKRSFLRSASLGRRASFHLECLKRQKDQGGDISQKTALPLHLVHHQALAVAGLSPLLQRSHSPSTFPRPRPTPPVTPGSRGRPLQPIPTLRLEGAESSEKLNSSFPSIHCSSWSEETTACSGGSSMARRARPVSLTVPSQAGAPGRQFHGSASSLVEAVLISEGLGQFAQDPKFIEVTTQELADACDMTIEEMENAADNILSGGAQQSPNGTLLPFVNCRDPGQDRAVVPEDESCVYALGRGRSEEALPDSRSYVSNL
# Also: assay procedure not described here.
SMILES,AC50 [1],AC50 [2],AC50 [3],AC50 (D(1A) dopamine receptor),AC50 (Endothelin-1 receptor),AC50 (Histamine H1 receptor),AC50 [4],AC50 [5],AC50 [6],AC50 [7],AC50 [8]
CC[C@@H](C(N)=O)N1CCCC1=O,> 30 µM,> 30 µM,> 30 µM,> 30 µM,> 30 µM,> 10 µM,> 30 µM,> 30 µM,> 30 µM,> 30 µM,
CCC(CC)(CC(=O)Nc1cccc(/C=C/c2nc(C3CCC3)cs2)c1)C(=O)O,,,,,> 30 µM,,> 30 µM,> 30 µM,> 30 µM,,
CC(=O)c1ccc2c(c1)N(CCCN(C)C)c1ccccc1S2 [ACEPROMAZINE],,,,> 30 µM,,,,,,,
CCCC1O[C@@H]2C[C@H]3[C@@H]4CCC5=CC(=O)C=C[C@]5(C)[C@H]4[C@@H](O)C[C@]3(C)[C@]2(C(=O)CO)O1 (stereo partly drawn) [BUDESONIDE],> 10 µM,,,> 10 µM,,,> 10 µM,> 10 µM,> 10 µM,> 10 µM,> 10 µM
C=CCN1C[C@H](C(=O)N(CCCN(C)C)C(=O)NCC)C[C@@H]2c3cccc4[nH]cc(c34)C[C@H]21 [CABERGOLINE],,> 10 µM,> 30 µM,0.0367 µM,,6.8 µM,> 30 µM,5.4 µM,8.7 µM,> 10 µM,> 10 µM
NC1CCN(c2c(F)cc3c(=O)c(C(=O)O)cn(C4CC4)c3c2Cl)C1 (stereo not drawn) [CLINAFLOXACIN],,,250 µM,,> 300 µM,,,,,,
CN1CCN(C2=Nc3ccccc3Sc3ccc(Cl)cc32)CC1 [CLOTHIAPINE],> 30 µM,1.2 µM,2 µM,> 30 µM,,0.02 µM,,,,> 30 µM,
CN(C)CCC=C1c2ccccc2C=Cc2ccccc21 [CYCLOBENZAPRINE],> 10 µM,0.18 µM,0.35 µM,> 10 µM,> 30 µM,0.021 µM,> 30 µM,> 30 µM,0.378 µM,> 10 µM,> 10 µM
CCOc1ccc(Cc2cc([C@@H]3O[C@H](CO)[C@@H](O)[C@H](O)[C@H]3O)ccc2Cl)cc1 [DAPAGLIFLOZIN],,> 10 µM,> 30 µM,,,> 10 µM,> 30 µM,> 30 µM,> 30 µM,> 10 µM,> 10 µM
CN(C)CC/C=C1\c2ccccc2CSc2ccccc21 [DOTHIEPIN],29 µM,,,> 30 µM,> 30 µM,0.019 µM,,20 µM,0.8 µM,,24 µM
CC[C@H]1CN2CCc3cc(OC)c(OC)cc3[C@@H]2C[C@@H]1C[C@H]1NCCc2cc(OC)c(OC)cc21 [EMETINE],1.2 µM,,,> 30 µM,> 30 µM,,> 30 µM,> 30 µM,> 30 µM,> 30 µM,
COc1ccc(C(=O)Nc2ccccc2CCC2CCCCN2C)cc1 (stereo not drawn) [ENCAINIDE],> 10 µM,> 10 µM,> 10 µM,> 10 µM,> 30 µM,> 10 µM,> 30 µM,> 10 µM,> 10 µM,> 10 µM,> 10 µM
O=[N+]([O-])O[C@@H]1CO[C@H]2[C@@H]1OC[C@@H]2O [ISOSORBIDE MONONITRATE],> 10 µM,> 10 µM,> 10 µM,> 10 µM,> 30 µM,> 10 µM,> 30 µM,> 10 µM,> 10 µM,> 10 µM,> 10 µM
Cc1cc(C)c(NC(=O)CN(CC(=O)O)CC(=O)O)c(C)c1Br [MEBROFENIN],> 30 µM,> 30 µM,> 30 µM,> 30 µM,,> 30 µM,,,,> 30 µM,
COc1ccccc1N1CCN(CC(O)COc2cccc3ccccc23)CC1 (stereo not drawn) [NAFTOPIDIL],3.7 µM,> 30 µM,> 30 µM,> 30 µM,,0.75 µM,13 µM,5.5 µM,9.6 µM,> 30 µM,6.3 µM
COc1cc2nc(N3CCN(C(=O)c4ccco4)CC3)nc(N)c2cc1OC [PRAZOSIN],,,,> 10 µM,> 30 µM,,> 30 µM,> 10 µM,> 10 µM,> 10 µM,> 10 µM
O=[N+]([O-])c1cn2c(n1)OC[C@@H](OCc1ccc(OC(F)(F)F)cc1)C2 [PRETOMANID],,> 10 µM,> 10 µM,,> 30 µM,> 10 µM,> 30 µM,> 10 µM,> 10 µM,,> 10 µM
Cc1oc(=O)oc1CN1CCN(c2cc3c(cc2F)c(=O)c(C(=O)O)c2n3C(C)S2)CC1 (stereo not drawn) [PRULIFLOXACIN],> 30 µM,> 30 µM,> 30 µM,> 30 µM,,> 30 µM,,,,> 30 µM,
CCCCCNC(=N)N/N=C/c1c[nH]c2ccc(OC)cc12 [TEGASEROD],5.65 µM,> 30 µM,> 30 µM,0.34 µM,> 30 µM,> 30 µM,> 30 µM,6.78 µM,0.495 µM,> 30 µM,> 30 µM
COC1=C(OC)C(=O)C(C/C=C(\C)CC/C=C(\C)CC/C=C(\C)CC/C=C(\C)CC/C=C(\C)CC/C=C(\C)CC/C=C(\C)CC/C=C(\C)CC/C=C(\C)CCC=C(C)C)=C(C)C1=O [UBIDECARENONE],> 30 µM,> 30 µM,> 30 µM,> 30 µM,,> 30 µM,,,,> 30 µM,
CN(C)CCc1c[nH]c2ccc(C[C@H]3COC(=O)N3)cc12 [ZOLMITRIPTAN],> 30 µM,> 30 µM,> 30 µM,> 30 µM,> 30 µM,> 30 µM,> 30 µM,> 30 µM,> 30 µM,> 30 µM,
